Assay results: US10722505B2, “Substituted 2,4 diamino-quinoline as new anticancer agents” (GENOSCIENCE PHARMA, priority 2014, dated 2020)
Structures can show the parent of a compound that is named as a salt.

How the values were obtained:
[1] = system: PBMC (peripheral blood mononuclear cell); test: CellTiter-Glo growth inhibition assay, PBMC; type: cell-based; settings: 72 h
Protocol: (§1) All cell lines were maintained in medium containing 1% penicillin-streptomycin (Dutscher, P06-07100) and 10% Fetal Bovine Serum (Gibco, W3387L) except 20% for KG-1 cell line and PBMC, and cultured at 37° C. with 5% CO2.
PBMC was maintained in RPMI 1640 medium medium (Dutscher, L0498).
(§2) Cell viability was measured using the CellTiter-Glo® luminescent cell viability assay as described by the manufacturer (Promega, Ref G7571) using an Infinite F200Pro luminometer (Tecan). Briefly, for adherent cells, cells were plated onto 96-well plates (white with clear bottom) in 90 μL of media per well and were allowed to grow overnight before the assay. For cells growing in suspension, cells were plated onto 96-well plates immediately before the assay.
(§3) Compounds were added at different concentrations to each well, and cell cultures were incubated for 72 h. Vehicle (H2O) was used as a control, and all compounds were tested in a constant percentage of H2O. After addition of 100 μL of CellTiter-Glo®, luminescence was measured using an Infinite F200Pro (Tecan). EC50 values were determined as the dose of compound required to reduce luminescent values to 50% of the signal obtained for untreated cell cultures. The experimental data were analyzed using a computer program, Graphpad Prism v5 (GraphPad Software, Inc. La Jolla, Calif.). […]

HepG2 cell line = test: CellTiter-Glo growth inhibition assay, HepG2; type: cell-based; settings: Homo sapiens; HepG2, hepatocellular carcinoma, 72 h
Protocol: as §1
(§4) HepG2, Huh7, HCT-116, MDA-MB-231 and A375 cell lines were cultured in Dulbecco's modified Eagle's medium (Dutscher, L0103).
as §2, §3

Huh-7 cell line = test: CellTiter-Glo growth inhibition assay, Huh-7; type: cell-based; settings: Homo sapiens; Huh-7, hepatocellular carcinoma, 72 h
Protocol: as §1, §4, §2, §3

MDA-MB-231 cell line = test: CellTiter-Glo growth inhibition assay, MDA-MB-231; type: cell-based; settings: Homo sapiens; MDA-MB-231, breast adenocarcinoma, 72 h
Protocol: as §1, §4, §2, §3

ARPE-19 cell line = test: CellTiter-Glo growth inhibition assay, ARPE-19; type: cell-based; settings: ARPE-19, human retinal pigmented epithelium, 72 h
Protocol: as §1
ARPE-19 cell line was cultured in DMEM:F12 medium (Dutscher, L0093).
as §2, §3

[2] = system: ALDH+ (CSC) population of MOLM-14 cell line; test: Aldefluor kit assay, ALDH+ compartment in MOLM-14; type: cell-based, human; settings: 72 h, control = 100
Description: Analysis of the of aldehyde dehydrogenase (ALDH) compartment and high activity level of aldehyde dehydrogenase activity (ALDH+) was used to detect tumor initiating cells (cancer stem cells, CSC) population. The Aldefluor™ kit assay (StemCell Technologies, 01700) allowed to assess the activity of drugs on CSC cells like in a MOLM-14 acute myeloid leukemia cell line population (ref: Storms, R. W., Trujillo, A. P., Springer, J. B., Shah, L., Colvin, O. M., Ludeman, S. M., & Smith, C. (1999). Isolation of primitive human hematopoietic progenitors on the basis of aldehyde dehydrogenase activity. Proceedings of the National Academy of Sciences, 96(16), 9118-9123). The Aldefluor™ kit assay was used according to the procedure described by the manufacturer. Briefly, MOLM-14 cell line was cultured in MEM alpha medium supplemented with 10% v/v Fetal Bovine Serum, 1% Penicillin-Streptomycin and maintained at 37° C. with 5% CO2. 5·10^5 cells were used in this assay. Each compound was added at different concentrations (see table 8), and cell cultures were incubated for 72 h. Vehicle (H2O) was used as a control, and all compounds were tested in a constant percentage of vehicle. Cells obtained from cell culture were incubated for 45 minutes at 37° C. with Aldefluor™ buffer assay containing the Bodipy™-aminoacetaldehyde, a fluorescent ALDH aldehyde substrate. ALDH converts the fluorescent substrate BAAA to the Bodipy™-aminoacetic acid (BAA) which is retained in the cell. An active efflux inhibitor is present in the Adelfluor™ assay buffer in order to avoid the active efflux from the cell of the substrate product ALDH dependent converted BAA. The fluorescent signal is directly proportional to the ALDH activity in the cells and is measured by flow cytometry. A negative control is used to measure the background fluorescence level. For such purpose, 4-(N,N-diethylamino)-benzaldehyde (DEAB) was used as selective ALDH inhibitor. A viability cell count was performed using LIVE/DEAD® Fixable Far Red Dead Cell Stain Kit (Invitrogen). The experimental data are analyzed using a computer program, Graphpad Prism v5 (GraphPad Software, Inc. La Jolla, Calif.) and EC50 values were determined as the dose of compound required to reduce absorbance values to 50% of the signal obtained for vehicle treated cell cultures.

CAKI-1 cell line = test: CellTiter-Glo growth inhibition assay, CAKI-1; type: cell-based; settings: Homo sapiens, CAKI-1, 72 h
Protocol: CAKI-1 and 786-0 cell lines were maintained in RPMI 1640 medium (Dutscher, L0498) containing 1% penicillin-streptomycin (Dutscher, P06-07100) and 10% Fetal Bovine Serum (Gibco, W3387L) and cultured at 37° C. with 5% CO2.
as §2, with “Briefly,” for “Briefly, for adherent cells,”, “assay.” for “assay. For cells growing in suspension, cells were plated onto 96-well plates immediately before the assay.”
Compounds 2-3 and two reference compounds (Sorafenib and Sunitinib) were added at different concentrations to each well, and cell cultures were incubated for 72 h. For compound 2-3 analysis, H2O was used as a negative control (=untreated) and all concentrations were tested in a constant percentage of H2O. For Sorafenib and Sunitinib analysis, DMSO was used as a negative control (=untreated) and all concentrations were tested in a constant percentage of DMSO. 72 h after incubation of compounds, 100 μL of CellTiter-Glo® were added to each well and luminescence was measured using an Infinite F200Pro (Tecan). EC50 values were determined as the dose of compound required to reduce luminescent values to 50% of the signal obtained for untreated cell cultures. The experimental data were analyzed using a computer program, Graphpad Prism v5 (GraphPad Software, Inc. La Jolla, Calif.). All experiments were at least done in triplicate and repeated at least three independent times.

`CC(C)(C)NC1CCN(c2cc(NCc3ccc(Cl)cc3)nc3ccccc23)CC1` [Compound 2-3, 2-(4-chlorobenzylamino)-4-(4-tert-butylaminopiperidin-1-yl)-quinoline hydrochloride salt] gave an EC50 [1] of 1.9 µM, an EC50 (HepG2 cell line) of 0.9 µM and an EC50 (Huh-7 cell line) of 1.7 µM. The EC50 (MDA-MB-231 cell line) was 2 µM, the EC50 (ARPE-19 cell line) was about 6.9 µM and the “ALdefluor positive CSCs (%)” value ([2]; MOLM-14, 2.5 μM) was 100%. The “ALdefluor positive CSCs (%)” value ([2]; MOLM-14, 5.0 μM) was 80%, the “ALdefluor positive CSCs (%)” value ([2]; MOLM-14, 7.5 μM) was 20% and the EC50 (CAKI-1 cell line) was 1.4 µM.
